Literature values as cited in US9927424B2, “Assays for identifying compounds that modulate bitter taste” (Chromocell Corporation, priority 2013, dated 2018).

Columns and labels:
Conditions in all cases: PCT/US12/61400; cited from earlier work
[1] = molecular target: T1, TAS2R4 (Homo sapiens, UniProt Q9NYW5)
T1 construct: expressed in transfected cells
T1 sequence (Q9NYW5 1-299): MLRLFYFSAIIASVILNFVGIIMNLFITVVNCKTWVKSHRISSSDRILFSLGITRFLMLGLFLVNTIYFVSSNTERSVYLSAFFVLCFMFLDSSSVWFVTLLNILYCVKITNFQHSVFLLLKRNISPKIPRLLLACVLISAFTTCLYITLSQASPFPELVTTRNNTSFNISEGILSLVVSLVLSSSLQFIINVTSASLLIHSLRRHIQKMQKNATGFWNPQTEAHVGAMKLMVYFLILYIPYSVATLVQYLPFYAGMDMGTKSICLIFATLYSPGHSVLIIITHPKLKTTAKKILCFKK

[2] = molecular target: T2, TAS2R13 (Homo sapiens, UniProt Q9NYV9)
T2 construct: expressed in transfected cells
T2 sequence (Q9NYV9 1-303): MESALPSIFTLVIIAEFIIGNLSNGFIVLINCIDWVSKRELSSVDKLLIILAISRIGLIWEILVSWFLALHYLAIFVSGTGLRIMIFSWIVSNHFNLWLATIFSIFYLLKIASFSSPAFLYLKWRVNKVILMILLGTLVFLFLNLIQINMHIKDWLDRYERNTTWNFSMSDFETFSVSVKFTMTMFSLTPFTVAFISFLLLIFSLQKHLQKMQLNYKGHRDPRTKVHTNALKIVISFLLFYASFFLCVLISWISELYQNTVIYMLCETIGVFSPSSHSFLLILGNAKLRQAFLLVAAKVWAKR

[3] = molecular target: T3, TAS2R14 (Homo sapiens, UniProt Q9NYV8)
T3 construct: expressed in transfected cells
T3 sequence (Q9NYV8 1-317): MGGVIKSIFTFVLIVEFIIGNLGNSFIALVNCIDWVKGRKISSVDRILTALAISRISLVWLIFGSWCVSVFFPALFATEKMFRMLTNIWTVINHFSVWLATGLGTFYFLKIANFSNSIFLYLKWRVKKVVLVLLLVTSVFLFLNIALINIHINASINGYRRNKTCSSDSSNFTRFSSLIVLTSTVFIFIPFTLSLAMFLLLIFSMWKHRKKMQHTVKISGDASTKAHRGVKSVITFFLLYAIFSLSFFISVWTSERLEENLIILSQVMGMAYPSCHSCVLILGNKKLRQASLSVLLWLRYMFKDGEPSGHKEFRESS

[4] = molecular target: T4, TAS2R60 (Homo sapiens, UniProt P59551)
T4 construct: expressed in transfected cells
T4 sequence (P59551 1-318): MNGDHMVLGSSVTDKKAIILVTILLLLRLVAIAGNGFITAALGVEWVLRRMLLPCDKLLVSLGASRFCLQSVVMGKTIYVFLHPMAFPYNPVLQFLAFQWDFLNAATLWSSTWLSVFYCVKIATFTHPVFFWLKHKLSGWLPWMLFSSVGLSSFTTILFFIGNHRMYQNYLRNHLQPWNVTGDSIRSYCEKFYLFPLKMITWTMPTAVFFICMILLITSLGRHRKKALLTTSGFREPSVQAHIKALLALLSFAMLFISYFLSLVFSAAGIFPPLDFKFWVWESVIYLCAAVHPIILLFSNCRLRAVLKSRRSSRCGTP

[Cl-].[K+] [KCl]
specifically respond: TAS2R4 response to stimulation, previously shown [1] | TAS2R13 response to stimulation, previously shown [2] | TAS2R14 response to stimulation, previously shown [3] | TAS2R60 response to stimulation, previously shown [4]
